Test results from patent US20130281467A1, “NOVEL MICROBICIDES” (SYNGENTA PARTICIPATIONS AG, priority 2010, published 2013).

Experiments:
[1] = tested on: Blumeria graminis f. Sp. tritici (Erysiphe graminis f. sp. tritici); test: Fungicidal activity against Blumeria graminis f. sp. tritici / wheat / leaf disc preventative (powdery mildew on wheat); type: in vivo; conditions: foliar, wheat leaf segments, inoculated 1 day after application, compared to untreated, read-out: disease control
Experimental: Fungicidal Activity Against Blumeria graminis f. Sp. tritici (Erysiphe graminis f. sp. tritici)/Wheat/Leaf Disc Preventative (Powdery Mildew on Wheat)
Wheat leaf segments cv. Kanzler were placed on agar in a multiwell plate (24-well format) and sprayed with the formulated test compound diluted in water. The leaf disks were inoculated by shaking powdery mildew infected plants above the test plates 1 day after application. The inoculated leaf disks were incubated at 20° C. and 60% rh under a light regime of 24 h darkness followed by 12 h light/12 h darkness in a climate chamber and the activity of a compound was assessed as percent disease control compared to untreated when an appropriate level of disease damage appears on untreated check leaf segments (6-8 days after application).

[2] = tested on: Botryotinia fuckeliana (Botrytis cinerea); test: Fungicidal activity against Botryotinia fuckeliana (Botrytis cinerea) / liquid culture (gray mould); type: cell-based; conditions: 3-4 days after application, read-out: disease control (inhibition of growth, photometrically)
Experimental: Fungicidal Activity Against Botryotinia fuckeliana (Botrytis cinerea)/Liquid Culture (Gray Mould) Conidia of the fungus from cryogenic storage were directly mixed into nutrient broth (Vogels broth). After placing a (DMSO) solution of test compound into a microtiter plate (96-well format), the nutrient broth containing the fungal spores was added. The test plates were incubated at 24° C. and the inhibition of growth was determined photometrically 3-4 days after application.

Gaeumannomyces graminis = test: Fungicidal activity against Gaeumannomyces graminis / liquid culture (take-all of cereals); type: cell-based; conditions: 4-5 days after application, read-out: disease control (inhibition of growth, photometrically)
Experimental: (§1) Fungicidal Activity Against Gaeumannomyces graminis/Liquid Culture (Take-all of Cereals) Mycelial fragments of the fungus from cryogenic storage were directly mixed into nutrient broth (PDB potato dextrose broth). After placing a (DMSO) solution of test compound into a microtiter plate (96-well format), the nutrient broth containing the fungal spores iss added. The test plates were incubated at 24° C. and the inhibition of growth was determined photometrically 4-5 days after application.

[3] = tested on: Glomerella lagenarium (Colletotrichum lagenarium); test: Fungicidal activity against Glomerella lagenarium (Colletotrichum lagenarium) / liquid culture (anthracnose); type: cell-based; conditions: Colletotrichum orbiculare, 3-4 days after application, read-out: disease control (inhibition of growth, photometrically)
Experimental: as §1, with “Glomerella lagenarium (Colletotrichum lagenarium)/Liquid” for “Gaeumannomyces graminis/Liquid”, “(Anthracnose) Conidia” for “(Take-all of Cereals) Mycelial fragments”, “was” for “iss”, “measured” for “determined”, “3-4” for “4-5”

[4] = tested on: Monographella nivalis (Microdochium nivale); test: Fungicidal activity against Monographella nivalis (Microdochium nivale) / liquid culture (foot rot cereals); type: cell-based; conditions: 4-5 days after application, read-out: disease control (inhibition of growth, photometrically)
Experimental: as §1, with “Monographella nivalis (Microdochium nivale)/Liquid” for “Gaeumannomyces graminis/Liquid”, “(Foot Rot” for “(Take-all of”, “Conidia” for “Mycelial fragments”, “was” for “iss”

[5] = tested on: Mycosphaerella arachidis (Cercospora arachidicola); test: Fungicidal activity against Mycosphaerella arachidis (Cercospora arachidicola) / liquid culture (early leaf spot); type: cell-based; conditions: 4-5 days after application, read-out: disease control (inhibition of growth, photometrically)
Experimental: as §1, with “Mycosphaerella arachidis (Cercospora arachidicola)/Liquid” for “Gaeumannomyces graminis/Liquid”, “(Early Leaf Spot) Conidia” for “(Take-all of Cereals) Mycelial fragments”, “was” for “iss”

[6] = tested on: Phaeosphaeria nodorum (Septoria nodorum); test: Fungicidal activity against Phaeosphaeria nodorum (Septoria nodorum) / wheat / leaf disc preventative (glume blotch); type: in vivo; conditions: Parastagonospora nodorum, foliar, wheat leaf segments, inoculated 2 days after application, compared to untreated, read-out: disease control
Experimental: Fungicidal Activity Against Phaeosphaeria nodorum (Septoria nodorum)/Wheat/Leaf Disc Preventative (Glume Blotch) Wheat leaf segments cv. Kanzler were placed on agar in a multiwell plate (24-well format) and sprayed with the formulated test compound diluted in water. The leaf disks were inoculated with a spore suspension of the fungus 2 days after application. The inoculated test leaf disks were incubated at 20° C. and 75% rh under a light regime of 12 h light/12 h darkness in a climate cabinet and the activity of a compound was assessed as percent disease control compared to untreated when an appropriate level of disease damage appears in untreated check leaf disks (5-7 days after application).

[7] = tested on: Puccinia recondita f. sp. tritici; test: Fungicidal activity against Puccinia recondita f. sp. tritici / wheat / leaf disc preventative (brown rust); type: in vivo; conditions: foliar, wheat leaf segments, inoculated 1 day after application, compared to untreated, read-out: disease control
Experimental: Fungicidal Activity Against Puccinia recondita f. sp. tritici/Wheat/Leaf Disc Preventative (Brown Rust) Wheat leaf segments cv. Kanzler were placed on agar in multiwell plates (24-well format) and sprayed with the formulated test compound diluted in water. The leaf disks were inoculated with a spore suspension of the fungus 1 day after application. The inoculated leaf segments were incubated at 19° C. and 75% rh under a light regime of 12 h light/12 h darkness in a climate cabinet and the activity of a compound was assessed as percent disease control compared to untreated when an appropriate level of disease damage appears in untreated check leaf segments (7-9 days after application).

Pyrenophora teres = test: Fungicidal activity against Pyrenophora teres / barley / leaf disc preventative (net blotch); type: in vivo; conditions: foliar, barley leaf segments, inoculated 2 days after application, compared to untreated, read-out: disease control
Experimental: Fungicidal Activity Against Pyrenophora teres/Barley/Leaf Disc Preventative (Net Blotch) Barley leaf segments cv. Hasso were placed on agar in a multiwell plate (24-well format) and sprayed with the formulated test compound diluted in water. The leaf segments were inoculated with a spore suspension of the fungus 2 days after application. The inoculated leaf segments were incubated at 20° C. and 65% rh under a light regime of 12 h light/12 h darkness in a climate cabinet and the activity of a compound was assessed as disease control compared to untreated when an appropriate level of disease damage appears in untreated check leaf segments (5-7 days after application).

[8] = tested on: Mycosphaerella graminicola (Septoria tritici); test: Fungicidal activity against Mycosphaerella graminicola (Septoria tritici) / liquid culture (Septoria blotch); type: cell-based; conditions: Zymoseptoria tritici, 4-5 days after application, read-out: disease control (inhibition of growth, photometrically)
Experimental: as §1, with “Mycosphaerella graminicola (Septoria tritici)/Liquid” for “Gaeumannomyces graminis/Liquid”, “(Septoria Blotch) Conidia” for “(Take-all of Cereals) Mycelial fragments”, “was” for “iss”

[9] = tested on: Thanatephorus cucumeris (Rhizoctonia solani); test: Fungicidal activity against Thanatephorus cucumeris (Rhizoctonia solani) / liquid culture (foot rot, damping-off); type: cell-based; conditions: 3-4 days after application, read-out: disease control (inhibition of growth, photometrically)
Experimental: Fungicidal Activity Against Thanatephorus cucumeris (Rhizoctonia solani)/Liquid Culture (Foot Rot, Damping-Off) Mycelia fragments of a newly grown liquid culture of the fungus were directly mixed into nutrient broth (PDB potato dextrose broth). After placing a (DMSO) solution of the test compounds into a microtiter plate (96-well format), the nutrient broth containing the fungal material was added. The test plates were incubated at 24° C. and the inhibition of growth was determined photometrically 3-4 days after application.

| SMILES | melting point [°C] | pest or weed control at 200 ppm [1] [%] | inhibition at 200 ppm [2] [%] | inhibition at 200 ppm (Gaeumannomyces graminis) [%] | inhibition at 200 ppm [3] [%] | inhibition at 200 ppm [4] [%] | inhibition at 200 ppm [5] [%] | pest or weed control at 200 ppm [6] [%] | pest or weed control at 200 ppm [7] [%] | pest or weed control at 200 ppm (Pyrenophora teres) [%] | inhibition at 200 ppm [8] [%] | inhibition at 200 ppm [9] [%] |
| --- | --- | --- | --- | --- | --- | --- | --- | --- | --- | --- | --- | --- |
| N#Cc1cccc(Cc2cccc(-c3ncc4c(n3)CCOC4)n2)c1 [Compound 8] | 206 to 207 |  |  |  |  |  |  |  |  |  |  |  |
| CO/N=C1\CCCc2nc(-c3cccc(Cc4ccccc4)n3)ncc21 [Compound 9] | 213 to 215 | ≥ 80 | ≥ 80 | ≥ 80 | ≥ 80 | ≥ 80 | ≥ 80 | ≥ 80 | ≥ 80 | ≥ 80 |  |  |
| CO/N=C1\CC(C)(C)Cc2nc(-c3cccc(Cc4ccccc4OC)n3)ncc21 [Compound 10] | 239 to 241 |  |  |  |  |  |  |  |  |  |  |  |
| CC1(C)CCc2cnc(-c3cccc(Cc4ccc(Cl)cc4)n3)nc2C1 [Compound 12] | 183 to 184 |  | ≥ 80 |  |  |  | ≥ 80 |  |  |  |  |  |
| CC1(C)CCc2cnc(-c3cccc(Cc4ccccc4Cl)n3)nc2C1 [Compound 13] | 272 to 273 |  | ≥ 80 |  | ≥ 80 | ≥ 80 | ≥ 80 | ≥ 80 |  |  | ≥ 80 | ≥ 80 |
| COc1ccccc1Cc1cccc(-c2ncc3c(n2)CC(C)(C)CC3)n1 [Compound 14, 2-[6-(2-methoxybenzyl)-pyridin-2-yl]-7,7-dimethyl-5,6,7,8-tetrahydroquinazoline] | 251 to 252 |  | ≥ 80 | ≥ 80 | ≥ 80 | ≥ 80 | ≥ 80 |  |  | ≥ 80 | ≥ 80 | ≥ 80 |
| Cc1ccccc1Cc1cccc(-c2ncc3c(n2)CC(C)(C)CC3)n1 [Compound 15] | 259 to 260 |  | ≥ 80 |  | ≥ 80 | ≥ 80 | ≥ 80 | ≥ 80 |  | ≥ 80 | ≥ 80 | ≥ 80 |
| CC1(C)CCc2cnc(-c3cccc(Cc4cccc(Cl)c4)n3)nc2C1 [Compound 16] | 219 to 220 |  | ≥ 80 |  | ≥ 80 | ≥ 80 | ≥ 80 | ≥ 80 |  | ≥ 80 | ≥ 80 |  |
| O=C1CCCc2nc(-c3cccc(Cc4ccccc4)n3)ncc21 [Compound 20] | 69 to 75 |  | ≥ 80 | ≥ 80 | ≥ 80 |  | ≥ 80 |  |  |  | ≥ 80 |  |
| COc1ccc(OC)c(Cc2cccc(-c3ncc4c(n3)CCOC4)n2)c1 [Compound 22] | 286 to 288 | ≥ 80 | ≥ 80 | ≥ 80 | ≥ 80 |  |  | ≥ 80 | ≥ 80 | ≥ 80 | ≥ 80 |  |
| COc1ccc(Cc2cccc(-c3ncc4c(n3)CCCCC4)n2)cc1 [Compound 35] |  | ≥ 80 | ≥ 80 | ≥ 80 | ≥ 80 | ≥ 80 | ≥ 80 | ≥ 80 | ≥ 80 | ≥ 80 | ≥ 80 | ≥ 80 |
| COc1ccc(Cc2cccc(-c3ncc4c(n3)CC(C)(C)CC4)n2)cc1 [Compound 37] |  | ≥ 80 | ≥ 80 | ≥ 80 | ≥ 80 | ≥ 80 | ≥ 80 | ≥ 80 | ≥ 80 | ≥ 80 | ≥ 80 | ≥ 80 |
| COc1ccc(Cc2cccc(-c3ncc4c(n3)CCCC4)n2)cn1 [Compound 41] |  | ≥ 80 | ≥ 80 | ≥ 80 | ≥ 80 | ≥ 80 | ≥ 80 | ≥ 80 | ≥ 80 | ≥ 80 | ≥ 80 | ≥ 80 |
| COc1ccc(Cc2cccc(-c3ncc4c(n3)CC(C)(C)CC4)n2)cn1 [Compound 42] |  | ≥ 80 | ≥ 80 | ≥ 80 | ≥ 80 | ≥ 80 | ≥ 80 | ≥ 80 | ≥ 80 | ≥ 80 | ≥ 80 | ≥ 80 |
| COc1ccc(C(C)c2cccc(-c3ncc4c(n3)CCCC4)n2)nc1 (centres unmarked) [Compound 44] |  | ≥ 80 | ≥ 80 | ≥ 80 | ≥ 80 | ≥ 80 | ≥ 80 | ≥ 80 | ≥ 80 | ≥ 80 | ≥ 80 | ≥ 80 |
